Laboratory results as given in patent US10464896B2, “Efflux-pump inhibitors and therapeutic uses thereof” (Basilea Pharmaceutica International AG, priority 2015, dated 2019).

system: E. coli ATCC25922; test: Antibacterial activity in combination with minocycline (growth inhibition); assay type: cell-based; settings: Escherichia coli, ATCC25922, compound at 25 μM; minocycline 0.25 μg/mL; OD625 23 h minus 1 h; read-out: residual growth of E. coli ATCC25922 (% of uninhibited control) with minocycline
Protocol: Antibacterial activity in combination with minocycline or with linezolid
Inhibition of growth was measured with E. coli ATCC25922 and P. aeruginosa PAO1 in a 96-well plate format. Cation-adjusted Müller-Hinton broth (caMHB) was inoculated with an overnight culture and incubated at 37° C. on a shaker until OD625 reached 0.6 to 0.7. Density was adjusted to OD600=0.5 by addition of caMHB. 35 μL of the suspension were diluted to 35 mL with caMHB and supplemented with minocycline at the subinhibitory doses of 0.25 μg/mL for E. coli and 8 μg/mL for P. aeruginosa or with linezolid at the subinhibitory dose of 128 μg/mL for E. coli and P. aeruginosa. Each well contained 1 μL of test compound in 100 μL caMHB with minocycline or with linezolid.
Plates were incubated at 37° C. on a plate shaker. OD625 was measured at 1 h, 6 h, and at 23 h.
The difference between OD at 23 h and at 1 h was taken as measure for cell density and compared to controls without inhibitor (i.e. uninhibited control). Results were expressed as residual growth (% of uninhibited control). Enhancement of minocycline or linezolid activity caused reduced residual growth.

| SMILES | activity at 25 µM |
| --- | --- |
| CC(C)(C)c1ccc(COc2cc(Cl)cc(CNCC3CNC3)c2)cc1 [Example 228] | ≤ 10% |
| Clc1ccc(COc2cccc(CNCC3CNC3)c2)c(I)c1 [Example 229] | ≤ 10% |
| Clc1ccc(COc2cccc(CNCC3CCNC3)c2)c(I)c1 (stereo not shown) [Example 230] | ≤ 10% |
| CC(C)(C)c1ccc(COc2ccc(CNCC3CNC3)cc2)cc1 [Example 231] | ≤ 10% |
| CC(C)(C)c1ccc(/C=C/c2cccc(CNCC3CCNC3)c2)cc1 (stereo not shown) [Example 233] | ≤ 10% |
| CC(C)(C)c1ccc(/C=C/c2cccc(CNCC3CNC3)c2)cc1 [Example 234] | ≤ 10% |
| CC(C)(C)c1ccc(/C=C\c2cccc(CNC3CCNCC3)c2)cc1 [Example 235] | ≤ 10% |
| CC(C)(C)c1ccc(/C=C\c2cccc(CNCC3CCNC3)c2)cc1 (stereo not shown) [Example 236, 1-[3-[(Z)-2-(4-tert-butylphenyl)vinyl]phenyl]-N-(pyrrolidin-3-ylmethyl)methanamine] | ≤ 10% |
| CC(C)(C)c1ccc(/C=C\c2cccc(CNCC3CNC3)c2)cc1 [Example 237] | ≤ 10% |
| Clc1ccc(COc2cc(CNCC3CCNC3)cc(OCCN3CCOCC3)c2)c(Br)c1 (stereo not shown) [Example 238] | ≤ 10% |
| Clc1ccc(COc2cc(CNCC3CNC3)cc(OCCN3CCOCC3)c2)c(Br)c1 [Example 239] | ≤ 10% |
| CC(C)(C)c1ccc(/C=C/c2cccc(CNC3CCNCC3)c2)cc1 [Example 240] | ≤ 10% |
| Clc1ccc(/C=C\c2cc(CNCC3CCNC3)cc(OCCN3CCOCC3)c2)c(Br)c1 (stereo not shown) [Example 241] | ≤ 10% |
| Clc1ccc(/C=C\c2cc(CNCC3CNC3)cc(OCCN3CCOCC3)c2)c(Br)c1 [Example 242] | ≤ 10% |
| Clc1ccc(/C=C/c2cc(CNCC3CNC3)cc(OCCN3CCOCC3)c2)c(Br)c1 [Example 243] | ≤ 10% |
| Clc1ccc(/C=C/c2cc(CNCC3CCNC3)cc(OCCN3CCOCC3)c2)c(Br)c1 (stereo not shown) [Example 246] | ≤ 10% |
| C[N+]1(C)CC(OCCOc2cc(CNCC3CCNC3)cc(OCc3ccc(Cl)cc3Br)c2)CC1C(=O)O (stereo not shown) [Example 247] | ≤ 10% |
| C[N+]1(C)CC(OCCOc2cc(CNCC3CNC3)cc(OCc3ccc(Cl)cc3Br)c2)CC1C(=O)O (stereo not shown) [Example 248] | ≤ 10% |
| CN1CC(OCCOc2cc(CNCC3CNC3)cc(OCc3ccc(Cl)cc3Br)c2)CC1C(=O)O (stereo not shown) [Example 249] | ≤ 10% |
| Clc1ccc(COc2cc(CNCC3CNC3)cc(OCCc3c[nH]cn3)c2)c(Br)c1 [Example 252] | ≤ 10% |
| Clc1ccc(/C=C\c2cc(CNCC3CCNC3)cc(OCCc3ccncc3)c2)c(Br)c1 (stereo not shown) [Example 253] | ≤ 10% |
| Clc1ccc(/C=C/c2cc(CNCC3CCNC3)cc(OCCc3ccncc3)c2)c(Br)c1 (stereo not shown) [Example 254] | ≤ 10% |
| Clc1ccc(/C=C\c2cc(CNCC3CNC3)cc(OCCc3c[nH]cn3)c2)c(Br)c1 [Example 255] | ≤ 10% |
| Clc1ccc(COc2cc(CNCC3CNC3)cc(OCCc3ccncc3)c2)c(Br)c1 [Example 256] | ≤ 10% |

| SMILES | activity at 25 µM |
| --- | --- |
| Clc1ccc(/C=C\c2cc(CNCC3CNC3)cc(OCCc3ccncc3)c2)c(Br)c1 [Example 257] | ≤ 10% |
| Clc1ccc(COc2cc(CNCC3CCNC3)cc(OCCc3ccncc3)c2)c(Br)c1 (stereo not shown) [Example 258] | ≤ 10% |
| Clc1ccc(/C=C\c2cc(CNCC3CCNC3)cc(OCCc3c[nH]cn3)c2)c(Br)c1 (stereo not shown) [Example 259] | ≤ 10% |
| Clc1ccc(/C=C/c2cc(CNCC3CNC3)cc(OCCc3ccncc3)c2)c(Br)c1 [Example 260] | ≤ 10% |
| Clc1ccc(/C=C/c2cc(CNCC3CNC3)cc(OCCc3c[nH]cn3)c2)c(Br)c1 [Example 261] | ≤ 10% |
| Clc1ccc(/C=C/c2cc(CNCC3CCNC3)cc(OCCc3c[nH]cn3)c2)c(Br)c1 (stereo not shown) [Example 262] | ≤ 10% |
| CC(C)COc1cc(CNCC2CCNC2)cc(OCc2ccc(C(F)(F)F)cc2)c1 (stereo not shown) [Example 264] | ≤ 10% |
| CC(C)COc1cc(CNCC2CCNC2)cc(OCc2ccc(C(F)(F)F)cc2C(F)(F)F)c1 (stereo not shown) [Example 265] | ≤ 10% |
| COc1cc(C#N)ccc1COc1cc(CNCC2CCNC2)cc(OCC(C)C)c1 (stereo not shown) [Example 266] | ≤ 10% |
| CC(C)COc1cc(CNCC2CCNC2)cc(OCc2ccc(Cl)cn2)c1 (stereo not shown) [Example 267] | ≤ 10% |
| CC(C)COc1cc(CNCC2CCNC2)cc(OCc2ccc(F)cc2Br)c1 (stereo not shown) [Example 268] | ≤ 10% |
| CC(C)COc1cc(CNCC2CCNC2)cc(OCc2ccc(Cl)nc2)c1 (stereo not shown) [Example 269] | ≤ 10% |
| CC(C)COc1cc(CNCC2CCNC2)cc(OCc2ccc(C(F)(F)F)cc2F)c1 (stereo not shown) [Example 271] | ≤ 10% |
| C=CCOc1cc(/C=C/c2ccc(F)cc2)cc(CNCC2CNC2)c1 [Example 272] | ≤ 10% |
| CC(C)COc1cc(CNCC2CNC2)cc(OCc2ccc(C(C)(C)C)cc2)c1 [Example 274] | ≤ 10% |
| C=CCOc1cc(/C=C/c2ccc(C(F)(F)F)cc2)cc(CNCC2CNC2)c1 [Example 275] | ≤ 10% |
| CC(C)COc1cc(CNCC2CCNC2)cc(OCc2ccc(F)cc2C(F)(F)F)c1 (stereo not shown) [Example 280] | ≤ 10% |
| CC(C)COc1cc(CNCC2CCNC2)cc(OCc2ccc(Cl)cc2C(F)(F)F)c1 (stereo not shown) [Example 281] | ≤ 10% |
| CC(C)COc1cc(CNCC2CCNC2)cc(OCc2ccc(C(F)(F)F)cc2Br)c1 (stereo not shown) [Example 282] | ≤ 10% |
| CC(C)COc1cc(CNCC2CCNC2)cc(OCc2ccc(F)nc2F)c1 (stereo not shown) [Example 283] | ≤ 10% |
| C=CCOc1cc(/C=C/c2ccc(C#N)cc2)cc(CNCC2CNC2)c1 [Example 284] | ≤ 10% |
| CC(C)COc1cc(CNCC2CCNC2)cc(OCc2ccc(C(F)(F)F)cn2)c1 (stereo not shown) [Example 289] | ≤ 10% |
| CC(C)COc1cc(CNCC2CCNC2)cc(OCc2ccc(C(C)(C)C)cc2Br)c1 (stereo not shown) [Example 290] | ≤ 10% |
| CC(C)COc1cc(CNCC2CCNC2)cc(OCc2ccc(C(F)(F)F)nc2)c1 (stereo not shown) [Example 291] | ≤ 10% |

| SMILES | activity at 25 µM |
| --- | --- |
| C=CCOc1cc(/C=C/c2ccc(C(C)(C)C)cc2)cc(CNCC2CNC2)c1 [Example 292] | ≤ 10% |
| C=CCOc1cc(/C=C/c2ccc(OC)cc2)cc(CNCC2CNC2)c1 [Example 294] | ≤ 10% |
| CC(C)(C)c1ccc(COc2cc(CNCC3CNC3)cc(C(C)(C)C)c2)cc1 [Example 295] | ≤ 10% |
| C=CCOc1cc(CNCC2CNC2)cc(OCc2ccc(C(C)(C)C)cc2)c1 [Example 296] | ≤ 10% |
| CC(C)(C)c1ccc(COc2cc(CNCC3CNC3)cc(OCc3ccccc3)c2)cc1 [Example 297] | ≤ 10% |
| C=CCOc1cc(/C=C/c2ccc(C#N)c(C(F)(F)F)c2)cc(CNCC2CNC2)c1 [Example 299] | ≤ 10% |
| C=CCOc1cc(/C=C/c2ccc(C#N)c(C(F)(F)F)c2)cc(CNCC2CCNC2)c1 (stereo not shown) [Example 300] | ≤ 10% |
| N#Cc1ccc(/C=C/c2cccc(CNCC3CCNC3)c2)cc1C(F)(F)F (stereo not shown) [Example 301] | ≤ 10% |
| C=CCOc1cc(/C=C/c2ccncc2C#N)cc(CNCC2CCNC2)c1 (stereo not shown) [Example 306] | ≤ 10% |
| C=CCOc1cc(/C=C/c2ccc(C#N)cn2)cc(CNCC2CCNC2)c1 (stereo not shown) [Example 307] | ≤ 10% |
| N#Cc1ccc(/C=C/c2cccc(CNCC3CNC3)c2)cc1C(F)(F)F [Example 308] | ≤ 10% |
| C=CCOc1cc(/C=C/c2cc(C#N)cc(C(F)(F)F)c2)cc(CNCC2CNC2)c1 [Example 309] | ≤ 10% |
| C=CCOc1cc(/C=C/c2ccc(C#N)cc2C(F)(F)F)cc(CNCC2CNC2)c1 [Example 310] | ≤ 10% |
| C=CCOc1cc(/C=C/c2ccc(C(F)(F)F)cc2C#N)cc(CNCC2CNC2)c1 [Example 311] | ≤ 10% |
| N#Cc1ccc(/C=C/c2cccc(CNCC3CNC3)c2)c(C(F)(F)F)c1 [Example 312] | ≤ 10% |
| C=CCOc1cc(/C=C/c2ccc(C#N)cc2C(F)(F)F)cc(CNCC2CCNC2)c1 (stereo not shown) [Example 313] | ≤ 10% |
| C=CCOc1cc(/C=C/c2ncccc2C#N)cc(CNCC2CCNC2)c1 (stereo not shown) [Example 315] | ≤ 10% |
| C=CCOc1cc(/C=C/c2cccs2)cc(CNCC2CNC2)c1 [Example 317] | ≤ 10% |
| C=CCOc1cc(/C=C/c2ccsc2)cc(CNCC2CNC2)c1 [Example 318] | ≤ 10% |
| C=CCOc1cc(/C=C/c2ccc(C(F)(F)F)c(C#N)c2)cc(CNCC2CNC2)c1 [Example 321] | ≤ 10% |
| C=CCOc1cc(CCc2ccc(OC)cc2OC)cc(CNCC2CNC2)c1 [Example 322] | ≤ 10% |
| C=CCOc1cc(/C=C/c2ccnc(C#N)c2)cc(CNCC2CCNC2)c1 (stereo not shown) [Example 324] | ≤ 10% |
| C=CCOc1cc(/C=C/c2cncc(C#N)c2)cc(CNCC2CCNC2)c1 (stereo not shown) [Example 325] | ≤ 10% |
| C=CCOc1cc(/C=C/c2ccc(C#N)nc2)cc(CNCC2CCNC2)c1 (stereo not shown) [Example 326] | ≤ 10% |

same assay, conditions: Escherichia coli, ATCC25922, compound at 50 μM; minocycline 0.25 μg/mL; OD625 23 h minus 1 h; read-out: residual growth of E. coli ATCC25922 (% of uninhibited control) with minocycline

| SMILES | activity at 50 µM |
| --- | --- |
| CC(C)COc1cc(CNCC2CCNC2)cc(OCc2cccnc2Br)c1 (stereo not shown) [Example 278] | ≤ 50% |
